Laboratory results published in ChEMBL document CHEMBL3734659, “Identification of tris-(phenylalkyl)amines as new selective h5-HT2Breceptor antagonists” (Medchemcomm, 2015).
The source made the active and inactive calls. No cut-off for these calls is given here.

Experiments:
[1] = target: 5-hydroxytryptamine receptor 2B (Homo sapiens, UniProt P41595); test: Antagonist activity at human recombinant 5-HT2B receptor expressed in Flp-In HEK cells in the presence of agonist preincubated for 10 mins by FLIPR based calcium mobilization assay; type: functional, cell-based, HEK293
[2] = target: Muscarinic acetylcholine receptor M3 (Homo sapiens) (UniProt P20309); test: Displacement of [3H]QNB from human Muscarinic acetylcholine M3 receptor stably expressed in CHO cell after 90 mins by scintillation counting method; type: cell-based
Chain of Muscarinic acetylcholine receptor M3 (Homo sapiens) (P20309 whole entry, looked up): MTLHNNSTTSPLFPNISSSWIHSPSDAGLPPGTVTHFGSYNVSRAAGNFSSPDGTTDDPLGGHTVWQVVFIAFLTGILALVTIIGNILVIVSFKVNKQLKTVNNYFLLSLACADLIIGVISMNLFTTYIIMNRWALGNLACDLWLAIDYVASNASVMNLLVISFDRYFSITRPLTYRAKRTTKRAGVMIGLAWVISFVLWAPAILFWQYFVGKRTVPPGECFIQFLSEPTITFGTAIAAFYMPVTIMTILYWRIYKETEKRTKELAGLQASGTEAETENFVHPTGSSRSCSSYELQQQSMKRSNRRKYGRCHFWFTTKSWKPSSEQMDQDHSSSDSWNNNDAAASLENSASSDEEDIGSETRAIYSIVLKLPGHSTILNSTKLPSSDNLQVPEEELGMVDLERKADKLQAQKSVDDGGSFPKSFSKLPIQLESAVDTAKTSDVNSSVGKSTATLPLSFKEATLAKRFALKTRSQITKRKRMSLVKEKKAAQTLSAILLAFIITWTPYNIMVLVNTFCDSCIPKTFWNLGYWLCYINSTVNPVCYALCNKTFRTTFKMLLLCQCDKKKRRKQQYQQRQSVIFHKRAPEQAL

Chain of 5-hydroxytryptamine receptor 2B (P41595 whole entry): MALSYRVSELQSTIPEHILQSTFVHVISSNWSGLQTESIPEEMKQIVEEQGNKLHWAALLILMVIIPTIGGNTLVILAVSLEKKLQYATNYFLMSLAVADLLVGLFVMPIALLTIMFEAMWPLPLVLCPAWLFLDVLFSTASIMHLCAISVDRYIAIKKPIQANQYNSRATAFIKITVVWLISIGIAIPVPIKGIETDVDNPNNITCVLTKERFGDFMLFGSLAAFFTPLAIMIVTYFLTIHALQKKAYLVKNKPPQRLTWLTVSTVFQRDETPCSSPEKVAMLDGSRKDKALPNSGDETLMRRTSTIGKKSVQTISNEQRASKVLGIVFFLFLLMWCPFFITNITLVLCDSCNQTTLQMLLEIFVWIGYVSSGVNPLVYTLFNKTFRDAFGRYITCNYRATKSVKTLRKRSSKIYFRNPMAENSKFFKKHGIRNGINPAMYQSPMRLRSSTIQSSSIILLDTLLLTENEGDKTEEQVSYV

IC50 [1]: 0.794 µM
Activity [2]: inactive
Structure (SMILES): COc1ccc(CCN(CCCc2ccccc2)CCc2ccc3c(c2)OCO3)cc1OC
